Values after ≈ are worked out from the molar mass of the structure shown. Active and inactive are the calls of the source. No cut-off for these calls is given here.
Assays:
Pseudococcus viburni = experiment: Insecticidal activity against Pseudococcus viburni; format: functional, organism-based
Lactuca sativa [1] = experiment: Phytotoxicity in naked Lactuca sativa (lettuce) assessed as residual aldehyde odor after compound application through two-tier reduced pressure fumigation at 30 mmHg for 0.5 hr and then 760 mmHg for 1.5 hr at 23 +/- 1 degC after 2 hr; format: organism-based; conditions: in vivo
Pseudococcus affinis = experiment: Insecticidal activity against Pseudococcus affinis; format: functional, organism-based
Lactuca sativa [2] = experiment: Phytotoxicity in naked Lactuca sativa (lettuce) assessed as change in visual quality after compound application through two-tier reduced pressure fumigation at 30 mmHg for 0.5 hr and then 760 mmHg for 1.5 hr at 23 +/- 1 degC after 2 hr; format: organism-based; conditions: in vivo
Brevicoryne brassicae = experiment: Insecticidal activity against Brevicoryne brassicae (cabbage aphids); format: functional, organism-based
[3] = test system: Frankliniella occidentalis; experiment: Insecticidal activity against Frankliniella occidentalis (western flower thrips); format: functional, organism-based
Bemisia = experiment: Insecticidal activity against Bemisia sp.; format: functional, organism-based
Tetranychus urticae = experiment: Insecticidal activity against Tetranychus urticae (two-spotted spider mite); format: functional, organism-based
Myzus persicae [4] = experiment: Insecticidal activity against Myzus persicae (green peach aphid) placed under third leaf of naked Iceburg lettuce heads and after compound application for 2 hr through two-tier reduced pressure fumigation at 30 mmHg for 0.5 hr and then 760 mmHg for 1.5 hr at 23 +/- 1 degC measured after 24 hr; format: functional; conditions: for LC50: Myzus persicae, read-out: LD50 (the source's name)
[5] = test system: Frankliniella occidentalis; experiment: Insecticidal activity against Frankliniella occidentalis (western flower thrips) larva and adults; format: functional
Thysanoptera = experiment: Insecticidal activity Thysanoptera (thrips) on flower bulbs; format: functional
Myzus persicae [6] = experiment: Insecticidal activity Myzus persicae (green peach aphid) on flower bulbs; format: functional
Acari = experiment: Insecticidal activity mites on flower bulbs; format: functional
Myzus persicae [7] = experiment: Potentiation factor, ratio of LD50 for Myzus persicae (green peach aphid) applied through atmospheric pressure fumigation at 760 mmHg for 2 hr at 23 +/- 1 degC to LD50 for Myzus persicae (green peach aphid) applied through two-tier reduced pressure fumigation at 30 mmHg for 0.5 hr and then 760 mmHg for 1.5 hr at 23 +/- 1 degC; format: functional
Myzus persicae [8] = experiment: Insecticidal activity against Myzus persicae (green peach aphid) applied through atmospheric pressure fumigation at 760 mmHg for 2 hr at 23 +/- 1 degC; format: functional; conditions: read-out: LD50 (the source's name)
Myzus persicae [9] = experiment: Insecticidal activity against Myzus persicae (green peach aphid) applied through two-tier reduced pressure fumigation at 30 mmHg for 0.5 hr and then 760 mmHg for 1.5 hr at 23 +/- 1 degC; format: functional
Malus domestica = experiment: Phytotoxicity in Malus x domestica (apple) assessed as induction of olfactory damage after compound application for 1 hr through two-tier reduced pressure fumigation at 30 mmHg for 0.5 hr and then 760 mmHg for 1.5 hr at 23 +/- 1 degC; format: organism-based; conditions: in vivo
[10] = test system: Brassica oleracea var. capitata; experiment: Phytotoxicity in Brassica oleracea var. capitata (cabbage) assessed as induction of visual damage after compound application for 1 hr through two-tier reduced pressure fumigation at 30 mmHg for 0.5 hr and then 760 mmHg for 1.5 hr at 23 +/- 1 degC; format: organism-based; conditions: in vivo
Lactuca sativa [11] = experiment: Phytotoxicity in naked Lactuca sativa (lettuce) assessed as induction of olfactory damage after compound application for 1 hr through two-tier reduced pressure fumigation at 30 mmHg for 0.5 hr and then 760 mmHg for 1.5 hr at 23 +/- 1 degC; format: organism-based; conditions: in vivo
Myzus persicae [12] = experiment: Insecticidal activity against Myzus persicae (green peach aphid) infested wrapped lettuce applied for 1 hr through two-tier reduced pressure fumigation at 30 mmHg for 0.5 hr and then 760 mmHg for 1.5 hr at 23 +/- 1 degC measured 24 hr; format: functional, organism-based
Vitis vinifera [13] = experiment: (§1) Phytotoxicity in Vitis vinifera assessed as induction of olfactory damage after compound application for 1 hr through two-tier reduced pressure fumigation at 30 mmHg for 0.5 hr and then 760 mmHg for 1.5 hr at 23 +/- 1 degC; format: organism-based; conditions: in vivo
Citrus sinensis = experiment: Phytotoxicity in Citrus sinensis (orange) assessed as induction of olfactory damage after compound application for 1 hr through two-tier reduced pressure fumigation at 30 mmHg for 0.5 hr and then 760 mmHg for 1.5 hr at 23 +/- 1 degC; format: organism-based; conditions: in vivo
Citrus limon = experiment: Phytotoxicity in Citrus limon (lemon) assessed as induction of olfactory damage after compound application for 1 hr through two-tier reduced pressure fumigation at 30 mmHg for 0.5 hr and then 760 mmHg for 1.5 hr at 23 +/- 1 degC; format: organism-based; conditions: citrus x limon, in vivo
[14] = test system: Brassica oleracea var. italica; experiment: Phytotoxicity in Brassica oleracea var. italica after compound application for 1 hr through two-tier reduced pressure fumigation at 30 mmHg for 0.5 hr and then 760 mmHg for 1.5 hr at 23 +/- 1 degC; format: organism-based; conditions: in vivo
[15] = test system: Brassica oleracea var. italica; experiment: Phytotoxicity in Brassica oleracea var. italica assessed as induction of visual damage after compound application for 1 hr through two-tier reduced pressure fumigation at 30 mmHg for 0.5 hr and then 760 mmHg for 1.5 hr at 23 +/- 1 degC; format: organism-based; conditions: in vivo
Citrus x paradisi = experiment: Phytotoxicity in Citrus x paradisi (grape fruit) assessed as induction of visual damage after compound application for 1 hr through two-tier reduced pressure fumigation at 30 mmHg for 0.5 hr and then 760 mmHg for 1.5 hr at 23 +/- 1 degC; format: organism-based; conditions: in vivo
Oryza sativa = experiment: Phytotoxicity in Oryza sativa (rice) assessed as induction of visual damage after compound application for 1 hr through two-tier reduced pressure fumigation at 30 mmHg for 0.5 hr and then 760 mmHg for 1.5 hr at 23 +/- 1 degC; format: organism-based; conditions: in vivo
Lactuca sativa [16] = experiment: Phytotoxicity in naked Lactuca sativa (lettuce) after compound application for 1 hr through two-tier reduced pressure fumigation at 30 mmHg for 0.5 hr and then 760 mmHg for 1.5 hr at 23 +/- 1 degC; format: organism-based; conditions: in vivo
Myzus persicae [17] = experiment: Insecticidal activity against Myzus persicae (green peach aphid) infested naked lettuce applied for 1 hr through two-tier reduced pressure fumigation at 30 mmHg for 0.5 hr and then 760 mmHg for 1.5 hr at 23 +/- 1 degC measured 24 hr; format: functional, organism-based
Vitis vinifera [18] = experiment: as §1; format: organism-based; conditions: in vivo; remark: listed apart in the source
Phaseolus vulgaris = experiment: PhytoToxicity in Phaseolus vulgaris (beans) assessed as induction of visual damage after compound application for 1 hr through two-tier reduced pressure fumigation at 30 mmHg for 0.5 hr and then 760 mmHg for 1.5 hr at 23 +/- 1 degC; format: organism-based; conditions: in vivo, other
Lactuca sativa [19] = experiment: Phytotoxicity in wrapped Lactuca sativa (lettuce) assessed as induction of visual damage after compound application for 1 hr through two-tier reduced pressure fumigation at 30 mmHg for 0.5 hr and then 760 mmHg for 1.5 hr at 23 +/- 1 degC; format: organism-based; conditions: in vivo
Persea americana = experiment: Phytotoxicity in Persea americana (avocado) assessed as induction of visual damage after compound application for 1 hr through two-tier reduced pressure fumigation at 30 mmHg for 0.5 hr and then 760 mmHg for 1.5 hr at 23 +/- 1 degC; format: organism-based; conditions: in vivo
[20] = test system: Brassica oleracea var. capitata; experiment: Phytotoxicity in Brassica oleracea var. capitata (cabbage) after compound application for 1 hr through two-tier reduced pressure fumigation at 30 mmHg for 0.5 hr and then 760 mmHg for 1.5 hr at 23 +/- 1 degC; format: organism-based; conditions: in vivo

For `CC(C)=CC=O` [3-METHYL-(E)-2-BUTENAL], the Activity (Pseudococcus viburni) was “Active”, the Activity (Lactuca sativa [1]) was “Toxic” and the Activity (Pseudococcus affinis) was “Active”. For the same compound, the Activity (Lactuca sativa [2]) was “Toxic”, the Activity (Brevicoryne brassicae) was “inactive” and the Activity [3] was “Active”. For the same compound, the Activity (Bemisia) was “Active”, the Activity (Tetranychus urticae) was “inactive” and the LD90 (Myzus persicae [4]) was 139.1 mg/L. For the same compound, the LC50 (Myzus persicae [4]) was 73.9 µg/mL (≈ 879 µM).
In the case of `CBr` [BROMOMETHANE], the CTP [5] is reported as 25 mg/L.hr, the CTP (Thysanoptera) is reported as 100 mg/L.hr and the CTP (Myzus persicae [6]) is reported as 100 mg/L.hr. For the same compound, the CTP (Acari) was 100 mg/L.hr.
`CCCCCCC=O` [HEPTANAL] gave a Ratio (Myzus persicae [7]) of 3, an LC50 (Myzus persicae [8]) of 15 µg/mL (≈ 131 µM) and an LC50 (Myzus persicae [9]; Myzus persicae, read-out: LD50 (the source's name)) of 5 µg/mL (≈ 43.8 µM).
In the case of `CC(C)C=O` [ISOBUTYRALDEHYDE], the Activity (Pseudococcus viburni) is reported as “Active”, the Activity (Lactuca sativa [1]) is reported as “Toxic” and the Activity (Pseudococcus affinis) is reported as “Active”. For the same compound, the Activity (Lactuca sativa [2]) was “Toxic”, the Activity (Brevicoryne brassicae) was “inactive” and the Activity [3] was “Active”. The Activity (Bemisia) was “Active”, the Activity (Tetranychus urticae) was “inactive” and the CTP (Myzus persicae [9]) was 9.2 mg/L.hr. It also gave an LD90 (Myzus persicae [4]) of 224.1 mg/L.
`CCCCC=O` [PENTANAL] was tested, and the Activity (Pseudococcus viburni) was “Active”, the Activity (Lactuca sativa [1]) was “Toxic” and the Activity (Pseudococcus affinis) was “Active”. The Activity (Lactuca sativa [2]) was “Toxic”, the Activity (Brevicoryne brassicae) was “inactive” and the Activity [3] was “Active”. The Activity (Bemisia) was “Active”, the Activity (Tetranychus urticae) was “inactive” and the LD90 (Myzus persicae [4]) was 115.7 mg/L. It also gave an LC50 (Myzus persicae [4]) of 71.4 µg/mL (≈ 829 µM).
In the case of `CC/C=C/C=O` [PENTENAL], the Activity (Malus domestica) is reported as “Non-toxic”, the Activity [10] is reported as “Toxic” and the Activity (Lactuca sativa [11]) is reported as “Toxic”. For the same compound, the Activity (Myzus persicae [12]) was “Active”, the Activity (Vitis vinifera [13]) was “Non-toxic” and the Activity (Citrus sinensis) was “Non-toxic”. For the same compound, the Activity (Pseudococcus viburni) was “Active”, the Activity (Lactuca sativa [1]) was “Toxic” and the Activity (Pseudococcus affinis) was “Active”. The Activity (Lactuca sativa [2]) was “Toxic”, the Activity (Brevicoryne brassicae) was “inactive” and the Activity [3] was “Active”. The Activity (Citrus limon) was “Non-toxic”, the Activity [14] was “Toxic” and the Activity [15] was “Toxic”. The Activity (Citrus x paradisi) was “Toxic”, the Activity (Oryza sativa) was “Toxic” and the Activity (Bemisia) was “Active”. For the same compound, the Activity (Tetranychus urticae) was “inactive”, the Activity (Lactuca sativa [16]) was “Toxic” and the Activity (Myzus persicae [17]) was “Active”. For the same compound, the Activity (Vitis vinifera [18]) was “Non-toxic”, the Activity (Phaseolus vulgaris) was “Toxic” and the Activity (Lactuca sativa [19]) was “Toxic”. The Activity (Persea americana) was “Toxic”, the Activity [20] was “Toxic” and the CTP (Myzus persicae [4]) was 106 mg/L.hr. For the same compound, the LD90 (Myzus persicae [4]) was 25.8 mg/L and the LC50 (Myzus persicae [4]) was 13.1 µg/mL (≈ 156 µM).
